US20250197837A1, “SERINE PROTEASE FOR SELECTIVELY DEGRADING MUCINS AND USE THEREOF” (priority 2022, published 2025)

Experiments:
[1] = tested on: mucins after mucus formation; conditions: background statement; cited from earlier work
[2] = biological target: gel-like mucins from the abdominal cavity of patients with clinical peritoneal pseudomyxoma
[3] = biological target: mucus from mucinous appendiceal adenocarcinoma (clinical source)
[4] = biological target: mucus from mucinous ovarian cancer (clinical source)
gel-like mucins [5] = experiment: Example 2: mass loss of gel-like mucins, EatA versus bromelain; format: biochemical, human; conditions: 0.10 g mucins, 500 uL PBS, 37° C., 6 h
Excerpt: (§1) Since mucins of different origins and mucins associated with the mucus-related disease have different expression patterns and post-translational modifications, different mucins of clinical pathological origin and mixtures thereof are used in the present application. Preferably, mucins of clinical peritoneal pseudomyxoma origin are used. In the present application, firstly, gel-like mucins from the abdominal cavity of patients with clinical peritoneal pseudomyxoma are collected, after protein precipitation with 30% to 100% ammonium sulfate, cells and tissue fragments, adipose tissue that possibly doped in the collection process of mucins are selected and removed, and then dialyzed and filtered through a 100 KDa dialysis bag. Through the use of sulfate detection test paper, the sulfate concentration in the dialysate and the inner side of the dialysis bag is confirmed. When the sulfate concentration is less than 200 mg/L, the dialysis is terminated and gel-like mucins can be seen. This sample is collected and used as the substrate for in vitro tests to examine the degradation ability of serine protease EatA on mucins. Some examples used mucins removed from the abdominal cavity of clinical patients without purification. […]

[6] = tested on: human patient-derived gel-like mucins; experiment: Example 5: in vivo degradation of gel-like mucins embedded in mouse abdominal cavity; design: species or system C57 male mice; conditions: 80 ug injected 24 h after embedding 0.30 g mucins, sacrificed after 48 h
Method: The experiment included twenty C57 male mice aged 6-8 weeks. Five groups were set up in the experiment, including an experimental group (mucus+EatA, 5 mice), a control group (mucus+PBS, 5 mice), a bromelain group (mucus+bromelain, 5 mice), a negative sham operation group (minimal invasive open operation performed without adding mucins and enzyme, 3 mice), and a reference group (minimal invasive open operation performed with adding EatA protease, 2 mice). […] After 48 h, the mice were sacrificed, laparotomy was performed (results of abdominal examination after laparotomy were shown in FIG. 9) and the whole amount of gel-like mucins in the mice were removed, weighed using the method described in Example 2, counted and compared with the final amount of gel-like mucins remaining in three groups (experimental group (mucus+EatA), control group without enzyme (mucus+PBS) and bromelain group (mucus+bromelain)) to which gel-like mucins was added as a substrate, and results were shown in FIG. 8.

[7] = tested on: miscellaneous protein derived from the patient's abdominal cavity; experiment: Example 4: specificity, SDS-PAGE of miscellaneous proteins in homogenized patient mucins; format: biochemical, human; conditions: 2-10 ug protease, 100 μL homogenized mucins, 200 uL, 6 h
Method: Untreated mucins derived from clinical patients were briefly cleared to remove cellular tissue. 0.20 g of the above-mentioned mucins was accurately weighed and placed in 1 mL of PBS solution, 3-4 magnetic beads with a diameter of 1 mm were added, and then a resulting mixture was frozen and shaken at −30° C. for homogenization, so as to destroy the gel-like morphology of mucins, and release the miscellaneous protein from patients with mixed gel-like mucins. 100 μL of the homogenized mucins solution was added with 2-10 ug of protease (bromelain or serine protease EatA), respectively, and the reaction was performed in a 200 uL reaction system. After 6 h of reaction, samples were respectively taken for SDS-PAGE detection, and the total protein after fragmentation, which was the patient-derived miscellaneous protein in the abdominal cavity/abdominal mucins of the patient, was analyzed.

[8] = tested on: gelatin, lactoferrin and CD43, BSA and BSM; conditions: previous studies; cited from earlier work
[9] = tested on: mucinous appendiceal adenocarcinoma (MAA) mucus; experiment: Example 6: viscosity and appearance of mucinous appendiceal adenocarcinoma mucus after incubation; format: biochemical, human; conditions: 50 μg enzyme, 20 h
Method: (§2) This example carried out a degradation experiment on mucus from mucinous ovarian cancer and mucinous appendiceal adenocarcinoma using the serine protease EatA. 0.50 mL of the above-mentioned two new types of mucinous carcinoma mucus from clinical sources were weighed directly into test tubes, 50 μg of EatA serine protease dissolved in 0.25 mL of PBS buffer was added and then incubated in a total 750 uL reaction system at 37° C., 600 rpm for 20 h. For each type of mucinous carcinoma mucus sample, a control group was set up with only the addition of an equal volume of PBS, for a total of four experiments, each set up with three replicates. The viscosity of the incubated experimental samples was measured under an Anton Paar rheometer, probe model pp25, sample spacing 0.45 mm. After each sample was subjected to pre-shearing at a shearing frequency of 5 rad/s for 20 s, a total of 36 sample point data was obtained for each group of experiments by reading a total of 12 data at a shearing frequency of 10 rad/s every 5 s period for 60 s.

gel-like mucins [10] = experiment: Example 3: temperature, pH and time dependence of mucin degradation; format: biochemical, human
Excerpt: Since mucins of different origins and mucins associated with the mucus-related disease have different expression patterns and post-translational modifications, different mucins of clinical pathological origin and mixtures thereof are used in the present application. Preferably, mucins of clinical peritoneal pseudomyxoma origin are used. In the present application, firstly, gel-like mucins from the abdominal cavity of patients with clinical peritoneal pseudomyxoma are collected, after protein precipitation with 30% to 100% ammonium sulfate, cells and tissue fragments, adipose tissue that possibly doped in the collection process of mucins are selected and removed, and then dialyzed and filtered through a 100 KDa dialysis bag. Through the use of sulfate detection test paper, the sulfate concentration in the dialysate and the inner side of the dialysis bag is confirmed. When the sulfate concentration is less than 200 mg/L, the dialysis is terminated and gel-like mucins can be seen. This sample is collected and used as the substrate for in vitro tests to examine the degradation ability of serine protease EatA on mucins. Some examples used mucins removed from the abdominal cavity of clinical patients without purification.
During the experiment, 0.10 g of gel-like mucins was accurately weighed for each single reaction, 20 μg of aminoprotease EatA was added, the reaction was performed in 500 uL of solution system, and the weighing method for the remaining gel-like mucins was the same as that in Example 2. The control group was performed under the same conditions except that the serine protease EatA was not added, and three reactions were set in each group as statistical replicates. Due to the hydrating nature of gel-like mucins, the gel-like mucins absorbed water and swelled when in solution, resulting in a certain weight increase in the control group when finally weighed.
Among them, the experiment on temperature gradient was conducted in normal saline with pH=7.1, and results were shown in FIG. 4; in the pH experiment, the reaction system used was a solution system with different pH values based on 0.9% normal saline, and the reaction temperature was 37° C., and results are shown in FIG. 5; the reaction time for both the above-mentioned experiments was 6 h.
In the experiment regarding the degradation time, based on the temperature curve and pH curve, the experiment was carried out in PBS buffer with pH=7.2-7.4 at 37° C.

[11] = tested on: mucus (sputum), mucous colon cancer and the like of patients with chronic obstructive pulmonary pneumonia; experiment: Applicant's related studies: degradation of COPD sputum and mucous colon cancer mucus; format: biochemical, human; conditions: relevant study results of the applicant
[12] = tested on: gel-like mucins from the abdominal cavity of patients with clinical peritoneal pseudomyxoma; experiment: Example 1: degradation of gel-like mucins by EatA, visual/pipette observation; format: biochemical, human; conditions: about 80 μg enzyme, 0.30 g mucins, 500 ul, 37° C., 3 h
Excerpt: as §1

[13] = Example 5: tolerability in mice after intraperitoneal injection; format: in vivo, C57 male mice; conditions: mice injected with enzyme
[14] = tested on: mucinous ovarian cancer (MOC) mucus; experiment: Example 6: viscosity of mucinous ovarian cancer mucus after incubation (rheometer); format: biochemical, human; conditions: 50 μg enzyme, 0.50 mL mucus, 750 uL, 37° C., 600 rpm, 20 h; control about 2000 mPa s
Method: as §2

pancreatin
mucin degradation after mucus formation [1]: inefficient

elastase
mucin degradation after mucus formation [1]: inefficient

serine protease EatA (serine protease EatA-EatAp with only the passenger domain) (enzyme)
mass loss of gel-like mucins [2]: 90.3% | viscosity of mucus (rheometer) [3]: 7 mPa s | viscosity of mucus (rheometer) [4]: 670 mPa s

bromelain [reference compound]
mass loss of gel-like mucins (in words) (gel-like mucins [5]; increasing enzyme concentration): negative | amount of gel-like mucins remaining [6]: more than 0.30 g | degradation of patient-derived miscellaneous proteins (SDS-PAGE) [7]: the miscellaneous protein showed degradation

serine protease EatA: autotransporter serine protease from enterotoxigenic Escherichia coli H10407; passenger domain SEQ ID NO 2, full length SEQ ID NO 1
degradation of common human glycoproteins and non-human proteins [8]: did not degrade | viscosity of mucus after incubation ([9]; 0.50 mL mucus, 750 uL, 37° C., 600 rpm, control about 1200 mPa s): about 7 mPa s | appearance of mucus sample solution after incubation ([9]; after standing): becomes uniform | mass loss of gel-like mucins (gel-like mucins [5]; 40 μg enzyme, based on initial mass 0.1 g): 90.33% | degradation efficiency of gel-like mucins in vivo ([6]; based on initial 0.30 g): 78% | pH of maximum degradation efficiency (gel-like mucins [10]; 20 μg enzyme, 0.10 g mucins, 0.9% normal saline based, 37° C., 6 h): ~8 | mass loss of gel-like mucins (gel-like mucins [10]; 20 μg enzyme, 0.10 g mucins, PBS pH=7.2-7.4, 37° C., 10.5 h): 80% | temperature of maximum enzyme activity (gel-like mucins [10]; 20 μg enzyme, 0.10 g mucins, normal saline pH=7.1, 6 h): 34-37 °C | optimal working environment: pH (gel-like mucins [10]; degradation of gel-like mucins): 7-8 | optimal working environment: reaction temperature (gel-like mucins [10]; degradation of gel-like mucins): 34-37 °C | degradation effect on mucus [11]: certain degradation effect | degradation of patient-derived miscellaneous proteins (SDS-PAGE) [7]: did not degrade these proteins | degradation of gel-like mucins (observation) [12]: obvious degradation of gel-like mucins | survival from the beginning of the experiment [13]: more than 100 days | adverse reactions, behavior and body weight ([13]; compared with non-injected group): without adverse reactions | viscosity of mucus after incubation [14]: about 670 mPa s
